± gives the standard deviation of the averaged measurements.
Columns and labels:
EVEROLIMUS = compound: CO[C@H]1C[C@@H]2CC[C@@H](C)[C@@](O)(O2)C(=O)C(=O)N2CCCC[C@H]2C(=O)O[C@H]([C@H](C)C[C@@H]2CC[C@@H](OCCO)[C@H](OC)C2)CC(=O)[C@H](C)/C=C(\C)[C@@H](O)[C@@H](OC)C(=O)[C@H](C)C[C@H](C)/C=C/C=C/C=C/1C [EVEROLIMUS]; assay: surviving fraction relative to DMSO-only wells; higher = less growth inhibition; conditions: exposure time: 5 days
Method in brief: (§1)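 Lines were retained only if, across three screens, replicate Pearson r was >0.7 and median Z' was >0.3. Viability was measured as CellTiter-Glo luminescence and reported as surviving fraction relative to the median of DMSO-only wells. Readings followed 10 minutes at room temperature, after log-phase tumour cells seeded at 250–500 per well in 384-well plates had been exposed, from 24 hours after seeding, continuously for five days to inhibitors at 0.5, 1, 5, 10, 50, 100, 500 and 1000 nM.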

MK0752 = compound: O=C(O)CC[C@H]1CC[C@@](c2cc(F)ccc2F)(S(=O)(=O)c2ccc(Cl)cc2)CC1 [MK0752]; assay: as above; conditions: exposure time: 5 days
Method in brief: as §1

| Test System | surviving fraction (EVEROLIMUS; 0.5 nM) | surviving fraction (EVEROLIMUS; 1 nM) | surviving fraction (EVEROLIMUS; 5 nM) | surviving fraction (EVEROLIMUS; 10 nM) | surviving fraction (EVEROLIMUS; 50 nM) | surviving fraction (EVEROLIMUS; 100 nM) | surviving fraction (EVEROLIMUS; 500 nM) | surviving fraction (EVEROLIMUS; 1000 nM) | surviving fraction (MK0752; 0.5 nM) | surviving fraction (MK0752; 1 nM) | surviving fraction (MK0752; 5 nM) | surviving fraction (MK0752; 10 nM) | surviving fraction (MK0752; 50 nM) | surviving fraction (MK0752; 100 nM) | surviving fraction (MK0752; 500 nM) | surviving fraction (MK0752; 1000 nM) |
| --- | --- | --- | --- | --- | --- | --- | --- | --- | --- | --- | --- | --- | --- | --- | --- | --- |
| MHM BONE | 0.926 ± 0.063 | 0.864 ± 0.049 | 0.743 ± 0.057 | 0.696 ± 0.059 | 0.664 ± 0.029 | 0.672 ± 0.019 | 0.63 ± 0.011 | 0.638 ± 0.032 | 1 ± 0.032 | 1.04 ± 0.029 | 1.06 ± 0.029 | 1.06 ± 0.043 | 1.08 ± 0.029 | 1.08 ± 0.013 | 0.975 ± 0.025 | 0.989 ± 0.026 |
| NCIH441 LUNG | 1.15 ± 0.031 | 1.08 ± 0.098 | 1.183 ± 0.0021 | 1.04 ± 0.049 | 0.864 ± 0.097 | 1.03 ± 0.082 | 0.933 ± 0.056 | 0.876 ± 0.076 | 0.971 ± 0.21 | 1 ± 0.17 | 1.11 ± 0.057 | 1.08 ± 0.099 | 1.02 ± 0.03 | 1.05 ± 0.061 | 1.07 ± 0.11 | 0.974 ± 0.065 |
| NOS1 BONE | 0.77 ± 0.073 | 0.655 ± 0.039 | 0.607 ± 0.022 | 0.536 ± 0.048 | 0.491 ± 0.03 | 0.461 ± 0.052 | 0.415 ± 0.019 | 0.362 ± 0.023 | 1.08 ± 0.058 | 1.19 ± 0.087 | 1.16 ± 0.12 | 1.27 ± 0.068 | 1.16 ± 0.042 | 1.28 ± 0.23 | 1.05 ± 0.083 | 1.08 ± 0.032 |
| NY BONE | 0.789 ± 0.012 | 0.766 ± 0.024 | 0.729 ± 0.01 | 0.688 ± 0.019 | 0.692 ± 0.013 | 0.707 ± 0.015 | 0.644 ± 0.032 | 0.6403 ± 0.0042 | 1.04 ± 0.025 | 1.07 ± 0.03 | 1.11 ± 0.017 | 1.11 ± 0.052 | 1.07 ± 0.036 | 1.1 ± 0.02 | 1.02 ± 0.042 | 1.06 ± 0.034 |
| OS25HAL BONE | 0.863 ± 0.044 | 0.846 ± 0.0091 | 0.679 ± 0.029 | 0.622 ± 0.042 | 0.598 ± 0.014 | 0.581 ± 0.039 | 0.546 ± 0.034 | 0.52 ± 0.022 | 1 ± 0.016 | 1.04 ± 0.029 | 1.022 ± 0.0072 | 0.99 ± 0.04 | 1.09 ± 0.0091 | 1.1 ± 0.048 | 1.02 ± 0.057 | 1.07 ± 0.02 |
| OSHN BONE | 1.06 ± 0.014 | 1.03 ± 0.038 | 0.991 ± 0.035 | 0.983 ± 0.026 | 1.05 ± 0.054 | 1.06 ± 0.024 | 1.04 ± 0.057 | 1.06 ± 0.023 | 1.12 ± 0.034 | 1.14 ± 0.035 | 1.11 ± 0.018 | 1.11 ± 0.018 | 1.11 ± 0.034 | 1.13 ± 0.018 | 1.12 ± 0.02 | 1.09 ± 0.017 |
| PCI30 HEADNECK | 0.715 ± 0.07 | 0.6 ± 0.029 | 0.52 ± 0.027 | 0.508 ± 0.02 | 0.5 ± 0.051 | 0.508 ± 0.025 | 0.463 ± 0.03 | 0.468 ± 0.013 | 1.02 ± 0.12 | 1.04 ± 0.12 | 1.09 ± 0.057 | 1.1 ± 0.05 | 1.06 ± 0.076 | 1.08 ± 0.092 | 1.03 ± 0.047 | 1.04 ± 0.018 |
| RDES SOFT TISSUE | 1.09 ± 0.067 | 1.1 ± 0.099 | 1.11 ± 0.039 | 1.11 ± 0.087 | 0.981 ± 0.049 | 1.03 ± 0.12 | 1 ± 0.13 | 1.04 ± 0.063 | 1.27 ± 0.1 | 1.241 ± 0.0096 | 1.17 ± 0.1 | 1.21 ± 0.18 | 1.03 ± 0.15 | 1.18 ± 0.29 | 0.97 ± 0.097 | 0.998 ± 0.12 |
| S68 BREAST | 0.839 ± 0.17 | 0.547 ± 0.045 | 0.479 ± 0.048 | 0.434 ± 0.049 | 0.356 ± 0.06 | 0.336 ± 0.043 | 0.26 ± 0.027 | 0.285 ± 0.024 | 0.684 ± 0.15 | 0.975 ± 0.11 | 0.912 ± 0.11 | 0.96 ± 0.28 | 0.94 ± 0.094 | 0.989 ± 0.058 | 0.919 ± 0.19 | 1.04 ± 0.27 |
| SAOS2 BONE | 1.13 ± 0.094 | 1.12 ± 0.054 | 1.0323 ± 0.00058 | 0.943 ± 0.044 | 0.909 ± 0.048 | 0.936 ± 0.025 | 0.826 ± 0.064 | 0.71 ± 0.049 | 1.18 ± 0.028 | 1.2037 ± 0.00058 | 1.19 ± 0.12 | 1.22 ± 0.077 | 1.237 ± 0.0098 | 1.19 ± 0.076 | 1.12 ± 0.019 | 1.092 ± 0.0035 |
